From patent US8604073B2, “Antimicrobial composition” (Ethicon, Inc., priority 2006, dated 2013)

Key:
MRSE 700563 [1] = test: Zone of inhibition of treated Nu-Gel hydrogel squares on inoculated TSA agar
Protocol: (§1) The zone of inhibition, which is defined as the average distance in millimeter from four edges of the square and four edges of the clear zone around the square, was measured.

MRSA 006 = test: as above
Protocol: as §1

MRSA-006 = test: Viable plate count, resistant bacteria, protocol of Example 1
Protocol: (§2) A portion of 0.05 ml of each dilution was added to 0.95 ml of bacterial culture (trypticase soy broth containing 10^6 CFU/ml).
MRSA used are MRSA-002 and MRSA-006.

MRSE 51625 = test: as above
Protocol: as §2
MRSA used are MRSA-002 and MRSA-006.

MRSA-002 = test: as above
Protocol: as §2
MRSA used are MRSA-002 and MRSA-006.

MRSE 700563 [2] = test: as above
Protocol: as §2
MRSA used are MRSA-002 and MRSA-006.

Row | Molecule | Zone of inhibition (mm) MRSE 700563 (MRSE 700563 [1]; 6 ug/cm^2, 48 hours at 37° C.) [mm] | Zone of inhibition (mm) MRSA 006 (MRSA 006; 6 ug/cm^2, 48 hours at 37° C.) [mm] | CFU/ml MRSA-006 (MRSA-006; 5 ppm) | CFU/ml MRSE 51625 (MRSE 51625; 5 ppm) | CFU/ml MRSA-002 (MRSA-002; 5 ppm) | CFU/ml MRSE 700563 (MRSE 700563 [2]; 5 ppm) | Zone of inhibition (mm) MRSE 700563 (MRSE 700563 [1]; 60 ug/cm^2, 48 hours at 37° C.) [mm] | Zone of inhibition (mm) MRSA 006 (MRSA 006; 60 ug/cm^2, 48 hours at 37° C.) [mm] | CFU/ml MRSA-006 (MRSA-006; 100 ppm) | CFU/ml MRSE 51625 (MRSE 51625; 100 ppm) | CFU/ml MRSA-002 (MRSA-002; 100 ppm) | CFU/ml MRSE 700563 (MRSE 700563 [2]; 100 ppm)
1 | CCCCCCCCCCCC(=O)N[C@@H](CCCN=C(N)N)C(=O)OCC.Cl [LAE, ethyl ester of the lauramide of the arginine monohydrochloride] | 0 | 0 | 6.2 × 10^8 CFU/ml | 1.2 × 10^9 CFU/ml | 5.0 × 10^6 CFU/ml | 4.0 × 10^8 CFU/ml |  |  |  |  |  | 
2 | Cc1nnc(SCC2=C(C(=O)O)N3C(=O)[C@@H](NC(=O)Cn4cnnn4)[C@H]3SC2)s1 [Cefazolin (CF), Cefazolin] |  |  |  |  |  |  | 0 | 0 | 1.4 × 10^5 CFU/ml | 1.5 × 10^6 CFU/ml | 1.1 × 10^9 CFU/ml | 1.5 × 10^8 CFU/ml
3 | Polymixin B [Polymixin B (PY)] |  |  |  |  |  |  | 0 | 0 | 1.2 × 10^9 CFU/ml | 6.2 × 10^8 CFU/ml | 1.2 × 10^9 CFU/ml | 1.2 × 10^9 CFU/ml
